Assays:
Experiment in all cases: Z'-LYTE kinase panel
Assay type in all cases: biochemical
[1] = target: T1, PTK6 (Brk) (Homo sapiens, UniProt Q13882)
T1 construct: purchased ThermoFisher (SelectScreen, Z'-LYTE)
Method: (§1) Compounds 2, 3 and 5 were tested for activity against the 225 kinases in the ThermoFisher standard kinase panel. The standard Z′-LYTE assay protocol (ThermoFisher) was used to measure the percentage inhibition at 10 µM compound concentration (details are provided in the supporting information).

[2] = target: T2, LTK (TYK1) (Homo sapiens, UniProt P29376)
T2 construct: purchased ThermoFisher (SelectScreen, Z'-LYTE)
T2 sequence (P29376 17-864): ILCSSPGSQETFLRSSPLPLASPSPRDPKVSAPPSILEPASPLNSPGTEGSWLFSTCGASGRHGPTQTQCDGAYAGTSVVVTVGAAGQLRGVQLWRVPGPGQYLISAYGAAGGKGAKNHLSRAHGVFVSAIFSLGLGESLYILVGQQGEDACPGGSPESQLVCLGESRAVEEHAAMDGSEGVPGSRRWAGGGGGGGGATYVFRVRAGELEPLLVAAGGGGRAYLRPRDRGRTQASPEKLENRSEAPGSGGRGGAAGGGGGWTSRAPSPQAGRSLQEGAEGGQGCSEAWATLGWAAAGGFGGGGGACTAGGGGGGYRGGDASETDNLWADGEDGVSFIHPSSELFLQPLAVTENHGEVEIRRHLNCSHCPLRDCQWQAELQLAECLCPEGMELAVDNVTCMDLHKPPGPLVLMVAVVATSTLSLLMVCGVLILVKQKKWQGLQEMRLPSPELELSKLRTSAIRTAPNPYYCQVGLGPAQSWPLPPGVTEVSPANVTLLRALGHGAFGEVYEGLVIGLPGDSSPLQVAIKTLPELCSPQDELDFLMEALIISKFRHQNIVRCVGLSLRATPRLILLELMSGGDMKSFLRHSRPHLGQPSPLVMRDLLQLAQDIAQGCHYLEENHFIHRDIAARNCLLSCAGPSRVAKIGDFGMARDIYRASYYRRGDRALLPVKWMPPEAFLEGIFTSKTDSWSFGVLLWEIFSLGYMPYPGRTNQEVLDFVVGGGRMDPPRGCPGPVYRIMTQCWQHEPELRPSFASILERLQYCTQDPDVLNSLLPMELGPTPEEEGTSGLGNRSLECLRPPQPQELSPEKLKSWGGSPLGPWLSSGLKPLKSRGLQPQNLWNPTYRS
Method: as §1

[3] = target: T3, PRKCG (PKC gamma) (Homo sapiens, UniProt P05129)
T3 construct: purchased ThermoFisher (SelectScreen, Z'-LYTE)
Method: as §1

[4] = target: T4, EPHA1 (Homo sapiens, UniProt P21709)
T4 construct: purchased ThermoFisher (SelectScreen, Z'-LYTE)
T4 sequence (P21709 26-976): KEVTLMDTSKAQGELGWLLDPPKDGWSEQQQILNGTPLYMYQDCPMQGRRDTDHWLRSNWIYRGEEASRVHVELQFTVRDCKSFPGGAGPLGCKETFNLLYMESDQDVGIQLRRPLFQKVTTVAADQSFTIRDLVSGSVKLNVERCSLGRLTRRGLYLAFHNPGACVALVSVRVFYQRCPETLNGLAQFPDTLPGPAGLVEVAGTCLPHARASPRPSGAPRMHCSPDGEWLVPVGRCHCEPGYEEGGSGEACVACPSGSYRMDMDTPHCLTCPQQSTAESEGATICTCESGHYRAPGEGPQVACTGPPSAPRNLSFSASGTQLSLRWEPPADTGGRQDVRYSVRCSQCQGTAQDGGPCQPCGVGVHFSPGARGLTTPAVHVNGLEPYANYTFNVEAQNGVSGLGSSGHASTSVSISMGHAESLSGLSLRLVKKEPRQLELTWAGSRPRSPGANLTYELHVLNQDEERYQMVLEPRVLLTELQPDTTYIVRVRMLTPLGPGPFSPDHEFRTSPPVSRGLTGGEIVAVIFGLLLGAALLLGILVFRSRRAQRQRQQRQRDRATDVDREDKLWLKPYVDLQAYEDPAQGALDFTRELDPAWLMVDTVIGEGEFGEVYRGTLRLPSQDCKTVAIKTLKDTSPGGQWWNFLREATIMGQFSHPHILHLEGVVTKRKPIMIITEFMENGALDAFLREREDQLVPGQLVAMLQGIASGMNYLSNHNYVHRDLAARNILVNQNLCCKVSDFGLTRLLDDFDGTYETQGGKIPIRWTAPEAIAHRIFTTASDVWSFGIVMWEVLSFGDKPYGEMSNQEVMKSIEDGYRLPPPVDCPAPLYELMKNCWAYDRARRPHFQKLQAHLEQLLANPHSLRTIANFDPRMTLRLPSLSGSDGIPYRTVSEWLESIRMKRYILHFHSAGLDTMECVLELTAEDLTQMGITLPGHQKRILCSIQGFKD
Method: as §1

[5] = target: T5, RPS6KB1 (p70S6K) (Homo sapiens, UniProt P23443)
T5 construct: purchased ThermoFisher (SelectScreen, Z'-LYTE)
T5 sequence (P23443 whole entry): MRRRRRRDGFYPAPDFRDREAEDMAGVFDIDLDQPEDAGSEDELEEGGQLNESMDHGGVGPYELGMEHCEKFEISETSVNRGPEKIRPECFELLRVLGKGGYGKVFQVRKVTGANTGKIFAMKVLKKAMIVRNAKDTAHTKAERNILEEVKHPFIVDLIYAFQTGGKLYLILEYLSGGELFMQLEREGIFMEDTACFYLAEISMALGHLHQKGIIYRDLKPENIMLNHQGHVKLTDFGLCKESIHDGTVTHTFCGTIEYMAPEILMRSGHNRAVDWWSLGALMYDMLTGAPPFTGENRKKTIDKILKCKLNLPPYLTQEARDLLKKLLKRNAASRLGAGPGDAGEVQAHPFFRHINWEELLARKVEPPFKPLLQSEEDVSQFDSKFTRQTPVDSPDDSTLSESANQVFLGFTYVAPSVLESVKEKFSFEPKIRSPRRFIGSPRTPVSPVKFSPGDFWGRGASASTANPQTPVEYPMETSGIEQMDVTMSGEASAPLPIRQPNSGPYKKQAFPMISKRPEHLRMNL
Method: as §1

[6] = target: T6, AKT3 (PKB gamma) (Homo sapiens, UniProt Q9Y243)
T6 construct: purchased ThermoFisher (SelectScreen, Z'-LYTE)
T6 sequence (Q9Y243 whole entry): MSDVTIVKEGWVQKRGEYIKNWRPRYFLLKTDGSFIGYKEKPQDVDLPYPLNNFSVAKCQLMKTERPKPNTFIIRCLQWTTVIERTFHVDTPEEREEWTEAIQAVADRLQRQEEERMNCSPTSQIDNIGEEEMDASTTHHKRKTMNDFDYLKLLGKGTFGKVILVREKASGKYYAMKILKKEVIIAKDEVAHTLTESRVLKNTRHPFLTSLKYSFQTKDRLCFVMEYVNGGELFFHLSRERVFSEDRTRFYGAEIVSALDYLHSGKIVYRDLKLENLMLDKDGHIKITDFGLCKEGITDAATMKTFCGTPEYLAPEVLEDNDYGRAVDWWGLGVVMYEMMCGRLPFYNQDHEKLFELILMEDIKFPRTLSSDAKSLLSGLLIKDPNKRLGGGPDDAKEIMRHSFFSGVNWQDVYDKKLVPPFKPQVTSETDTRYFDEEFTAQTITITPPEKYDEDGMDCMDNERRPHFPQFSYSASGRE
Method: as §1

[7] = target: T7, EPHB4 (Homo sapiens, UniProt P54760)
T7 construct: purchased ThermoFisher (SelectScreen, Z'-LYTE)
T7 sequence (P54760 16-987): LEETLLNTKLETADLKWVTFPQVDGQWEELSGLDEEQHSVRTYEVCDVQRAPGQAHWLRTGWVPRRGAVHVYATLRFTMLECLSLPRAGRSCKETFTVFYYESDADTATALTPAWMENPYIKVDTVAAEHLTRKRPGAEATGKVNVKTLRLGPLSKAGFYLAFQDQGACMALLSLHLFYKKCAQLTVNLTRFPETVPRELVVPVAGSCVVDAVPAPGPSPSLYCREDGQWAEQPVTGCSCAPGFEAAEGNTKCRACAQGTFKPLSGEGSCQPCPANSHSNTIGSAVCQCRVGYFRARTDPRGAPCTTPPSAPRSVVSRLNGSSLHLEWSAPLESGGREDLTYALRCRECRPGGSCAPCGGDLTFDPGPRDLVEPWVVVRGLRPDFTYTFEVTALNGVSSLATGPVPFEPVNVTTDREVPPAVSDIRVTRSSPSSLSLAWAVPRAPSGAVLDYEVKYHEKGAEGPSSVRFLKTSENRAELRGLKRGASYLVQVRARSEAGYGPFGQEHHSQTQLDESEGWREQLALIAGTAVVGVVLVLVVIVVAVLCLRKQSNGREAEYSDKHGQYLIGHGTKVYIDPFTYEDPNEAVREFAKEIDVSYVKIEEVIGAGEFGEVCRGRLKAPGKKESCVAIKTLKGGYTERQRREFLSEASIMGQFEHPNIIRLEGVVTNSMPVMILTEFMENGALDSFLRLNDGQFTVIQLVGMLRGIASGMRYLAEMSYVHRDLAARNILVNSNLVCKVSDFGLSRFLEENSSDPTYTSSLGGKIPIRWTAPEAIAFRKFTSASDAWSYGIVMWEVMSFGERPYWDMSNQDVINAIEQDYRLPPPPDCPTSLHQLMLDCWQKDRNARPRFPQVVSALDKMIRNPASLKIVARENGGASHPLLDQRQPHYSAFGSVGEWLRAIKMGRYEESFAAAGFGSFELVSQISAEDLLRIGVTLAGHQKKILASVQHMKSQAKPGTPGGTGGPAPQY
Method: as §1

[8] = target: T8, MAPK3 (ERK1) (Homo sapiens, UniProt P27361)
T8 construct: purchased ThermoFisher (SelectScreen, Z'-LYTE)
T8 sequence (P27361 whole entry): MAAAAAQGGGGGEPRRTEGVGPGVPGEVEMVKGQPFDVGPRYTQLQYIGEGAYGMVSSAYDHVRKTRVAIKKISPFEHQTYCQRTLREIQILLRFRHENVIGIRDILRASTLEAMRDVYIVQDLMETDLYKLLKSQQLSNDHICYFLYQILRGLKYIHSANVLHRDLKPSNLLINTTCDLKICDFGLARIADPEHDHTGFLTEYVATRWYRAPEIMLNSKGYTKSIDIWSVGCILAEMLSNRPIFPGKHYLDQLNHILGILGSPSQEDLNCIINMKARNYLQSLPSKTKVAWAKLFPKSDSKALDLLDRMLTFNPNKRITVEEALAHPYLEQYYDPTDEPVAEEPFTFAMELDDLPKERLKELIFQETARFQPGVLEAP
Method: as §1

T1 sequence (Q13882 whole entry): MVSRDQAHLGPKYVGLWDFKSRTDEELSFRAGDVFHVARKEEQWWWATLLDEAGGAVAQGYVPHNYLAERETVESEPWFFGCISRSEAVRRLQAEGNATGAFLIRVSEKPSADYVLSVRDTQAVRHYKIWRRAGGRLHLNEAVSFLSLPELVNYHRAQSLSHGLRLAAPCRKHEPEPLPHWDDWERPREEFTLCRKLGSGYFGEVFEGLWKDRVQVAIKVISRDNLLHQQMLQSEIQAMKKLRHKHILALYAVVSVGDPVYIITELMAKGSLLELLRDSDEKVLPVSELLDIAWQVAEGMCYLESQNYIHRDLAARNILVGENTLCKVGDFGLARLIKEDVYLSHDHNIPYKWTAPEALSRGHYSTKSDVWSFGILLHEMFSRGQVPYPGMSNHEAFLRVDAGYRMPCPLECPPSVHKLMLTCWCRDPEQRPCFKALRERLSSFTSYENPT

Compound | PTK6 (Brk) % Inhibition ([1]; 10 µM compound, ATP Km app) | LTK (TYK1) % Inhibition ([2]; 10 µM compound, ATP Km app) | PRKCG (PKC gamma) % Inhibition ([3]; 10 µM compound, ATP Km app) | EPHA1 % Inhibition ([4]; 10 µM compound, ATP Km app) | RPS6KB1 (p70S6K) % Inhibition ([5]; 10 µM compound, ATP Km app) | AKT3 (PKB gamma) % Inhibition ([6]; 10 µM compound, ATP Km app) | EPHB4 % Inhibition ([7]; 10 µM compound, ATP Km app) | MAPK3 (ERK1) % Inhibition ([8]; 10 µM compound, ATP Km app) | inhibition at 10 µM [1] | inhibition at 10 µM [2] | inhibition at 10 µM [3] | inhibition at 10 µM [4] | inhibition at 10 µM [5] | inhibition at 10 µM [6] | inhibition at 10 µM [7] | inhibition at 10 µM [8]
XMD8-92 [Compound 2, reference compound] | 14% | 24% | 62% | 9.48% | 5% | 72% | 29% | 8% |  |  |  |  |  |  |  | 
Cc1ncc(-c2nc(Nc3ccc(C(=O)NCCN4CCCCC4)cc3)ncc2F)n1C(C)C [Compound 3] |  |  |  |  |  |  |  |  | 61% | 73% | 89% | 98% | 87% | 43% | 83% | 40%
Cc1cc(Nc2nc(N)nn2C(=O)NC(C)C)ccc1Cl [Compound 5] |  |  |  |  |  |  |  |  | 5.47% | 18% | 10% | 11% | 7% | 2% | 17% | 7%

— article PMC4854315, “Discovery of a novel allosteric inhibitor-binding site in ERK5: comparison with the canonical kinase hinge ATP-binding site” (Acta Crystallographica. Section D, Structural Biology, 2016)
